Laboratory results from PubChem BioAssay (NCI).
Values joined by “and” are separate entries in the source; they are usually repeats but may differ in a detail not shown here. Identical values can stand only once.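 How tested: cells in 96-well plates exposed to compound for 48 hours at five concentrations. Here, GI50 denotes the concentration required for 50% inhibition of growth. TGI: concentration producing complete growth inhibition.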

Tests used:
Assay in all cases: growth of human tumour cells (NCI), 48 h
A549 NSCLC = system: A549 NSCLC
COLO 205 colon = system: COLO 205 colon
HCC-2998 colon = system: HCC-2998 colon
HOP-92 NSCLC = system: HOP-92 NSCLC
NCI-H522 lung = system: NCI-H522 lung
SF-295 CNS = system: SF-295 CNS
TK-10 renal = system: TK-10 renal
CAKI-1 renal = system: CAKI-1 renal
SW-620 colon = system: SW-620 colon
BT-549 breast = system: BT-549 breast

Compound | TGI (A549 NSCLC) | TGI (COLO 205 colon) | TGI (HCC-2998 colon) | TGI (HOP-92 NSCLC) | TGI (NCI-H522 lung) | TGI (SF-295 CNS) | TGI (TK-10 renal) | TGI (CAKI-1 renal) | TGI (SW-620 colon) | GI50 (A549 NSCLC) | GI50 (CAKI-1 renal) | GI50 (COLO 205 colon) | GI50 (HCC-2998 colon) | GI50 (HOP-92 NSCLC) | GI50 (SF-295 CNS) | GI50 (SW-620 colon) | GI50 (BT-549 breast) | TGI (BT-549 breast) | GI50 (NCI-H522 lung) | GI50 (TK-10 renal)
CCCCOC(=O)NC(=O)c1cn(CCSCCOC(=O)NCCCCCCNC(=O)OCCSCCn2cc(C(=O)NC(=O)OCCCC)c(=O)[nH]c2=O)c(=O)[nH]c1=O | > 100 µM | > 100 µM | > 100 µM | 71.8 µM | > 100 µM | > 100 µM | 92.4 µM |  |  |  |  |  |  |  |  |  |  |  |  | 
COC(=O)C1(F)C(=O)NC(=O)NC1O (centres undefined) | > 100 µM | > 100 µM | > 100 µM | > 100 µM | > 100 µM | > 100 µM | > 100 µM | > 100 µM | > 100 µM |  |  |  |  |  |  |  |  |  |  | 
Cc1c(C)[n+](=O)c(C)c(C)n1[O-] | > 100 µM | > 100 µM | > 100 µM | > 100 µM |  | > 100 µM |  | > 100 µM | > 100 µM | > 100 µM | > 100 µM | > 100 µM | > 100 µM | 2.91 µM | > 100 µM | > 100 µM |  |  |  | 
Fc1ccc(C2SCc3nc4ccccc4n32)cc1 (centres undefined) | > 100 µM | > 100 µM |  | 62 µM | 70.9 µM | > 100 µM | 72 µM | > 100 µM | > 100 µM |  |  |  |  |  |  |  |  |  |  | 
CCN(c1ccc(Br)cc1)c1c(Br)c(=O)nc2ccccn12 | > 100 µM | > 100 µM |  | > 100 µM | > 100 µM |  | > 100 µM | > 100 µM | > 100 µM |  |  |  |  |  |  |  |  |  |  | 
O=C(OCC1CO1)c1cccs1 (centres undefined) | > 100 µM | > 100 µM | > 100 µM | > 100 µM | 36.9 µM | > 100 µM | > 100 µM | > 100 µM | > 100 µM |  |  |  |  |  |  |  |  |  |  | 
COc1ccc(-c2ccc(-c3ccc(-c4ccc(C(=N)N)cc4)s3)s2)cc1OC |  | 4.57 µM |  | 6.1 µM | 62.2 µM | 45.5 µM |  | 30.4 µM | 4.2 µM |  | 15.1 µM | 1.37 µM |  | 2.18 µM | 21.2 µM | 0.882 µM | 17.3 µM | 46.8 µM | 14.1 µM | 
C1OC1CO[C@@H]1CO[C@H]2[C@@H]1OC[C@H]2OCC1CO1 (some centres undefined) | > 100 µM | > 100 µM | > 100 µM | > 100 µM | > 100 µM | > 100 µM | > 100 µM | > 100 µM | > 100 µM |  |  |  |  |  |  |  |  |  |  | 
CN1CC(C(=O)C2C(=O)c3ccccc3C2=O)C(=O)C(=O)C(C(=O)C2C(=O)c3ccccc3C2=O)C1 (centres undefined) | > 100 µM | > 100 µM | > 100 µM | > 100 µM | > 100 µM | > 100 µM | > 100 µM | > 100 µM | > 100 µM |  |  |  |  |  |  |  |  |  |  | 
CO[C@@H]1/C=C(C)/C=C/[C@@H](C)/C=C(\C)C(=O)OC(/C(C)=C/C=C(\C)CNC(=O)[C@H](CO)NC=O)[C@@H](C)/C=C/C=C/[C@H](OC)CC/C=C(C)/C=C/C1 (some centres undefined) | 0.0242 µM | 0.627 µM |  | 0.0852 µM | 18.7 µM | 0.00951 µM | 0.236 µM | 0.592 µM | 13.6 µM | 0.00881 µM | < 0.005 µM | 0.00816 µM |  | < 0.005 µM | < 0.005 µM | < 0.005 µM | < 0.005 µM | 12.1 µM | < 0.005 µM | < 0.005 µM
CCN(CCCl)CCCNc1c2ccccc2nc2ccc(OC)cc12 | 1300 µM | 1.12 µM |  |  |  |  |  |  | 1.39 µM |  | 133 µM |  | 436 µM | 180 µM | 308 µM |  |  |  | 103 µM | 872 µM
O=C(c1ccco1)c1c(C(F)(F)F)n([O-])c2ccccc2[n+]1=O | 27.7 µM | 28.5 µM |  | 0.986 µM | 1.98 µM | 7.69 µM | 6.7 µM | 3.94 µM | 20.5 µM | 3.18 µM | 1.13 µM | 3.32 µM |  | 0.144 µM | 1.32 µM | 0.859 µM | 1.31 µM | 3.81 µM | 0.468 µM | 1.49 µM
CC(=O)CCCCO | > 100 µM | > 100 µM |  | > 100 µM | > 100 µM | > 100 µM | > 100 µM | > 100 µM | > 100 µM |  |  |  |  |  |  |  |  |  |  | 
NC(N)=NNC(=O)CCCCCCCC(=O)NN=C(N)N | > 100 µM | 35.4 µM | > 100 µM |  |  | > 100 µM | > 100 µM | > 100 µM | 27.4 µM |  |  |  |  |  |  |  |  |  |  | 
CC(C)(C)C(=O)ON1N=NC2C3CC(OCc4ccccc4)(OCc4ccccc4)C(O3)C21 (centres undefined) | > 100 µM | 38.4 µM | 31.2 µM | 27.2 µM |  | 52.9 µM |  | > 100 µM | 50.7 µM |  |  |  |  |  |  |  |  |  |  | 
COc1cccc(/C=C/c2cnc3ccccc3n2)c1OC | > 100 µM | > 100 µM |  | 88.2 µM | 53.5 µM | > 100 µM | > 100 µM | > 100 µM | > 100 µM |  |  |  |  |  |  |  |  | 53.1 µM |  | 

Compound | TGI (A549 NSCLC) | TGI (COLO 205 colon) | TGI (HCC-2998 colon) | TGI (HOP-92 NSCLC) | TGI (NCI-H522 lung) | TGI (SF-295 CNS) | TGI (TK-10 renal) | TGI (CAKI-1 renal) | TGI (SW-620 colon) | GI50 (A549 NSCLC) | GI50 (CAKI-1 renal) | GI50 (COLO 205 colon) | GI50 (HCC-2998 colon) | GI50 (HOP-92 NSCLC) | GI50 (SF-295 CNS) | GI50 (SW-620 colon) | GI50 (BT-549 breast) | TGI (BT-549 breast) | GI50 (NCI-H522 lung) | GI50 (TK-10 renal)
O=C(C(=O)N1CC2C=CC1CC2)c1c[nH]c2ccccc12 (centres undefined) | > 100 µM | > 100 µM | > 100 µM | > 100 µM | > 100 µM | > 100 µM | > 100 µM | > 100 µM | > 100 µM |  |  |  |  |  |  |  |  |  |  | 
CC(=O)OC1(C)C(=O)OC1(C)C(C)=O (centres undefined) | > 100 µM | > 100 µM | > 100 µM | > 100 µM | > 100 µM | > 100 µM | > 100 µM | > 100 µM | > 100 µM |  |  |  |  |  |  |  |  |  |  | 
NC(=O)C(c1ccccc1)N1CCOCC1 (centres undefined) | > 100 µM | > 100 µM |  | > 100 µM | > 100 µM | > 100 µM | > 100 µM | > 100 µM | > 100 µM |  |  |  |  |  |  |  |  |  |  | 
CC(=O)OCC1OC(OC2CC3C(C)(C)C(O)CC[C@]3(C)C3CCC45CC4(CC[C@H]5C(C)CC(O)C4OC4(C)C)[C@]23C)C(O)C(O)C1O (some centres undefined) | 18.5 µM and 27.1 µM | 13.8 µM and 11.9 µM | 13.8 µM and 21.3 µM | 14.6 µM | 11.8 µM and 19 µM | 15.1 µM and 19.5 µM | 15.7 µM and 29.5 µM | 17.1 µM and 34.4 µM | 16.5 µM and 16.9 µM | 12.3 µM | 19.6 µM | 3.4 µM | 8.26 µM |  |  | 4.74 µM |  |  | 5.75 µM | 15.2 µM
O=C(CC(=O)N1N=C(N2c3ccccc3Sc3ccccc32)CC1c1ccccc1)Nc1ccc(Cl)cc1 (centres undefined) | > 100 µM | > 100 µM | > 100 µM | > 100 µM |  | > 100 µM | > 100 µM | > 100 µM | > 100 µM |  |  |  |  |  |  |  |  |  |  | 
COc1cc2c(cc1O)CC13CCC(=O)N1CCc1cc(OC)c(O)c-2c13 (centres undefined) | > 68.1 µM | > 68.1 µM | > 68.1 µM | > 68.1 µM |  | > 68.1 µM | > 68.1 µM | > 68.1 µM | > 68.1 µM |  |  |  |  |  |  |  |  |  |  | 
COc1ccc(/C=C\c2cc(OC)c(OC)c(OC)c2)cc1OC(=O)CCC(=O)O | > 100 µM | 38.5 µM |  |  |  | 67.7 µM | > 100 µM | > 100 µM | > 100 µM | 0.157 µM | < 0.0001 µM | 1.68 µM |  |  |  |  |  | > 100 µM |  | 
CC#CC1/C(=C\C(=O)OC)CCCC1O (centres undefined) | > 100 µM |  | > 100 µM |  | > 100 µM | > 100 µM | > 100 µM | > 100 µM | > 100 µM |  |  |  |  |  |  |  |  |  |  | 
Cc1cc(NS(=O)(=O)c2ccc(NC(=O)c3cccc4c(Nc5ccc(S(=O)(=O)N=C(N)N)cc5)c5ccccc5nc34)cc2)no1 | > 100 µM | > 100 µM | > 100 µM | > 100 µM | > 100 µM | > 100 µM | > 100 µM | > 100 µM | > 100 µM |  |  |  |  |  |  |  |  |  |  | 
CCOC(=O)C1SC(=Nc2ccc(Cl)c(Cl)c2)N=C1C (centres undefined) | > 100 µM | 76.3 µM | > 100 µM |  | > 100 µM | > 100 µM | > 100 µM | > 100 µM | > 100 µM |  |  |  |  |  |  |  |  |  |  | 
CC1=CCC23C(C1)OC(Br)(C=CC2(C)O)C3(C)C (centres undefined) | > 100 µM | > 100 µM | > 100 µM | > 100 µM |  | > 100 µM | > 100 µM | > 100 µM | > 100 µM |  |  |  |  |  |  |  |  |  |  | 
Nc1c(C(=O)Nc2ccccc2)[n+]([O-])c2ccccc2[n+]1[O-] | 68 µM | 29.3 µM | 32.2 µM | 32.1 µM | 4.4 µM | 41.1 µM | 42.2 µM | 16.8 µM | 38.3 µM |  |  |  |  |  |  |  |  |  |  | 
c1ccc2c(c1)[nH]c1cnc3c4cccnc4[nH]c3c12 | 34.7 µM | 30.3 µM | 34.5 µM | 60.7 µM |  | 49.8 µM | 26.1 µM | 33.7 µM | 32.3 µM |  |  |  |  |  |  |  |  |  |  | 
Cc1ccc(-c2cc(C3=CC(=O)C=CC3=O)n(-c3ccc(S(N)(=O)=O)cc3)n2)cc1 | > 100 µM | > 100 µM |  | > 100 µM | > 100 µM | > 100 µM | 48.7 µM | > 100 µM | > 100 µM | > 100 µM | 52.3 µM | 53.9 µM |  | 35.6 µM | > 100 µM | 44.5 µM | 64.1 µM | > 100 µM | 59.9 µM | 8.54 µM
Cc1cc(=O)oc2cc(OCc3c(F)cccc3Cl)ccc12 | > 100 µM |  |  | 33.2 µM | > 100 µM | 52.9 µM | > 100 µM | > 100 µM |  |  |  |  |  |  |  |  |  | > 100 µM |  | 
